Experimental data reported in PMC8949525, “Essential Elements and Isoflavonoids in the Prevention of Prostate Cancer” (Nutrients, 2022).
Like-named read-outs stand apart in the source and are kept apart here.

Key:
[1] = tested on: S. typhimurium TA1535/pSK1002; settings: for decrease in 2AA genotoxicity: range over 2AA 5 mg/L and 1 mg/L
Protocol: (§1) The umu-test detects the induction of bacterial DNA-damage response, the SOS system, in the strain S. typhimurium TA1535/pSK1002. The test strain carries pSK1002 plasmid, which contains the fusion of umuC, encoding one of SOS response proteins, and lacZ genes. The expression of β-galactosidase protein is fully controlled by umuC gene.
(§2) In the present study, the umu-test was performed in the micro-plate format according to the ISO guideline. The β-galactosidase activity was determined by the degree of ONPG cleavage measured as sample absorbance at 420 nm. The extent of SOS system activation was presented as induction ratio (IR), calculated as the ratio of β-galactosidase activity in the presence of the tested compound(s) to that of negative control. […] The optical density at 600 nm was used to describe the bacteria growth. […] Both measurements were performed with Asys UVM340 Hightech microplate spectrophotometer.
The S9 fraction from rat liver was used for metabolic activation of the tested compounds and the model mutagen. […] The P450 cytochrome level in the isolate was evaluated and the aliquots were stored at −80 °C. The S9 reaction mix was prepared as described by Maron and Ames.
(§3) In order to the establish anti-genotoxic potential of tested compounds, their effects on the action of two model genotoxic agents, 4NQO without the metabolic activation with rat liver S9 fraction and 2AA with metabolic activation, were evaluated. […] Subsequently, the modulation of 4NQO and 2AA genotoxicity by the isoflavones, the elements and their mixtures in previously used concentrations was investigated.

[2] = tested on: S. typhimurium TA1535/pSK1002; settings: for G (growth ratio): −S9, NQO line = genotoxin alone; for anti-genotoxic activity against 4NQO (summary class): cells cover 4NQO […] and 0.05 mg/L, the single + corresponds to […] (Table 2)
Protocol: as §1, §2, §3

[3] = tested on: LNCaP prostate cancer cells; assay: LNCaP cell proliferation (bisbenzimide H 33258-DNA fluorescence); type: cell-based, human; settings: isoflavone 10 μM, Zn 0.5, Se 0.03, Cu 0.5, Fe 1.5, Ca 40 μg/mL
Protocol: LNCaP cells (passage 12–18) were maintained in DMEM medium supplemented with 10% (v/v) FBS, sodium pyruvate (1 mM), penicillin (100 U/mL) and streptomycin (100 μg/mL) at 37 °C in 5% CO2 humidified atmosphere.
The final concentration of DMSO was 0.05%. It must be noted that DMEM contains 1.8 mM of calcium. […] The cells were then gently washed with 0.9% saline and lysed by brief sonication in deionised water. The cell proliferation was quantified by measurement of bisbenzimide H 33,258–DNA complexes fluorescence on Synergy 4 microplate reader with Gen5 software (BioTek Instruments Inc., 100 Tigan St, Winooski, VT 05404, USA).

LNCaP cells = assay: LNCaP viability/apoptosis, Hoechst 33258 fluorescent imaging; type: cell-based, human; settings: 48 h, Hoechst 33258 stain; genistein, Se, Fe; camptothecin 2 µM positive control
Protocol: The images were recorded with the DS-Fi1 camera connected with Eclipse TS100F inverted microscope with Epi-Fluorescent attachment (DAPI filter) and NIS-Elements BR 2.3 software.

[4] = 2AA 5 mg/L, +S9, genistein 10 μM and/or mineral added (Table 5), 2AA line = genotoxin alone
[5] = −S9, isoflavone 10 μM, minerals Zn 0.5, Se 0.03, Cu 0.5, Fe 1.5, Ca 40 μg/mL
[6] = 4NQO 0.05 mg/L, genistein 10 μM and/or mineral added (Table 2)
[7] = 4NQO […], genistein 10 μM and/or mineral added (Table 2)
[8] = 2AA 1 mg/L, +S9 (second symbol of the cell)
[9] = 2AA 5 mg/L, +S9 (first symbol of the cell)
[10] = inhibition of IR induced by 2AA 1 mg/L, +S9 (Table 5)
[11] = inhibition of IR induced by 2AA 5 mg/L, +S9 (Table 5)
[12] = 2AA 1 mg/L, +S9, daidzein or equol 10 μM with or without mineral (Table 6), 2AA line = genotoxin alone
[13] = 2AA 1 mg/L, +S9, genistein 10 μM and/or mineral added (Table 5), 2AA line = genotoxin alone
[14] = 2AA 5 mg/L, +S9, daidzein or equol 10 μM with or without mineral (Table 6), 2AA line = genotoxin alone

## [Ca+2].[Cl-].[Cl-] [Ca, calcium chloride]
[1]; [4]
  G (growth ratio): 1.19 ± 0.13
[1]; [5]
  G (growth ratio): 1.11 ± 0.09
[2]; [6]
  G (growth ratio): 1.13 ± 0.08
[2]; [7]
  G (growth ratio): 1.11 ± 0.05
[2]
  anti-genotoxic activity against 4NQO (summary class): + (anti-genotoxicty of used compound(s) ≤ 20%)
[3]; 48 h incubation
  LNCaP proliferation, % of control: 80 ± 9%

## O=c1c(-c2ccc(O)cc2)coc2cc(O)cc(O)c12 [gen, genistein]
LNCaP cells
  apoptosis / morphology of LNCaP cells: did not induce apoptosis
[1]; [8]
  anti-genotoxic activity against 2AA (summary class): ++ (anti-genotoxicty of used compound(s) 21–40%)
[1]; [9]
  anti-genotoxic activity against 2AA (summary class): + (anti-genotoxicty of used compound(s) ≤ 20%)
[1]; [4]
  G (growth ratio): 1.21 ± 0.17
[1]; [10]
  %Anti-Genotox.: 32%
[1]; [11]
  %Anti-Genotox.: 17%
[1]; +S9
  decrease in 2AA genotoxicity: 17–32%
[1]; [5]
  G (growth ratio): 1.28 ± 0.35
[2]; [7]
  G (growth ratio): 1.12 ± 0.24
[2]
  anti-genotoxic activity against 4NQO (summary class): + (anti-genotoxicty of used compound(s) ≤ 20%)
[3]; 24 h incubation
  LNCaP proliferation, % of control: 72 ± 9%
[3]; 48 h incubation
  LNCaP proliferation, % of control: 55 ± 9%

## Oc1ccc([C@H]2COc3cc(O)ccc3C2)cc1 [eq, equol]
[1]; [8]
  anti-genotoxic activity against 2AA (summary class): + (anti-genotoxicty of used compound(s) ≤ 20%)
[1]; [12]
  G (growth ratio): 0.99 ± 0.11
[1]; [9]
  anti-genotoxic activity against 2AA (summary class): ++ (anti-genotoxicty of used compound(s) 21–40%)
[1]; inhibition of IR induced by 2AA 1 mg/L, +S9 (Table 6)
  %Anti-Genotox.: 34%
[1]; inhibition of IR induced by 2AA 5 mg/L, +S9 (Table 6)
  %Anti-Genotox.: 29%
[1]; +S9
  decrease in 2AA genotoxicity: 29–34%
[1]; [5]
  G (growth ratio): 1.18 ± 0.33
[2]; 4NQO […], daidzein or equol 10 μM with or without mineral (Table 3)
  G (growth ratio): 0.97 ± 0.26
[3]; 24 h incubation
  LNCaP proliferation, % of control: 81 ± 9%
[3]; 48 h incubation
  LNCaP proliferation, % of control: 60 ± 9%

## O=[Se](=O)([O-])[O-].[Na+].[Na+] [Se, sodium selenate]
LNCaP cells
  apoptosis / morphology of LNCaP cells: did not induce apoptosis
[1]; [13]
  G (growth ratio): 1.18 ± 0.10
[1]; [4]
  G (growth ratio): 1.17 ± 0.12
[1]; [5]
  G (growth ratio): 1.14 ± 0.11
[2]; [6]
  G (growth ratio): 1.10 ± 0.09
[2]; [7]
  G (growth ratio): 1.11 ± 0.05
[3]; 48 h incubation
  LNCaP proliferation, % of control: 84 ± 11%

## O=S(=O)([O-])[O-].[Cu+2] [Cu, copper(II)/cupric sulphate]
[1]; [8]
  anti-genotoxic activity against 2AA (summary class): ++ ++ (anti-genotoxicty of used compound(s) 21–40%)
[1]; [13]
  G (growth ratio): 1.11 ± 0.12
[1]; [9]
  anti-genotoxic activity against 2AA (summary class): ++ ++ (anti-genotoxicty of used compound(s) 21–40%)
[1]; [10]
  %Anti-Genotox.: 33%
[1]; [11]
  %Anti-Genotox.: 26%
[1]; +S9
  decrease in 2AA genotoxicity: 26–33%
[2]; [6]
  G (growth ratio): 0.98 ± 0.10
[2]; [7]
  G (growth ratio): 1.00 ± 0.12
[3]; 48 h incubation
  LNCaP proliferation, % of control: 80 ± 14%

## Nc1ccc2cc3ccccc3cc2c1 [2AA, 2-aminoanthracene, reference compound]
[1]; [12]
  G (growth ratio): 0.92 ± 0.10
  IR (induction ratio): 2.37 ± 0.48
[1]; [13]
  G (growth ratio): 1.00 ± 0.07
  IR (induction ratio): 2.00 ± 0.53
[1]; [14]
  G (growth ratio): 0.86 ± 0.09
  IR (induction ratio): 2.91 ± 0.54
[1]; [4]
  G (growth ratio): 1.02 ± 0.08
  IR (induction ratio): 2.17 ± 0.39

## CC[C@@]1(O)C(=O)OCc2c1cc1n(c2=O)Cc2cc3ccccc3nc2-1 [camptothecin, reference compound]
LNCaP cells
  apoptosis / morphology of LNCaP cells: condensed chromatin or apoptotic nuclei

## O=S(=O)([O-])[O-].[Fe+2] [Fe, iron(II) sulphate]
LNCaP cells
  apoptosis / morphology of LNCaP cells: did not induce apoptosis
[1]; [8]
  anti-genotoxic activity against 2AA (summary class): ++ (anti-genotoxicty of used compound(s) 21–40%)
[1]; [13]
  G (growth ratio): 1.10 ± 0.06
[1]; [9]
  anti-genotoxic activity against 2AA (summary class): + (anti-genotoxicty of used compound(s) ≤ 20%)
[1]; +S9, isoflavone 10 μM, minerals Zn 0.5, Se 0.03, Cu 0.5, Fe 1.5, Ca 40 μg/mL
  G (growth ratio): 0.98 ± 0.10
[1]; [10]
  %Anti-Genotox.: 21%
[1]; [11]
  %Anti-Genotox.: 14%
[1]; +S9
  decrease in 2AA genotoxicity: 14–21%
[2]; [6]
  G (growth ratio): 1.10 ± 0.10
[2]
  anti-genotoxic activity against 4NQO (summary class): + (anti-genotoxicty of used compound(s) ≤ 20%)

## O=S(=O)([O-])[O-].[Zn+2] [Zn, Zinc sulphate]
[3]; 48 h incubation
  LNCaP proliferation, % of control: 82 ± 10%

## O=c1c(-c2ccc(O)cc2)coc2cc(O)ccc12 [dai, daidzein]
[3]; 24 h incubation
  LNCaP proliferation, % of control: 84 ± 10%
[3]; 48 h incubation
  LNCaP proliferation, % of control: 70 ± 7%
